Assay results published in patent publication US20020045780A1, “Biologically active spermidine analogues, pharmaceutical compositions and methods of treatment” (priority 1997, published 2002).
“Also recorded” adds a separate entry of the source. Where a name gives a salt, the structure may show the parent alone. Read-outs that look alike come from different tables or passages of the source.

Assays:
L1210 cells [1] = assay: L1210 growth inhibition, IC50 determination; assay type: cell-based, murine
Experimental: Murine L1210 leukemia cells (ATCC CCL 219) were maintained in logarithmic growth in RPMI-1640 medium containing 10% fetal calf serum or a semi-synthetic equivalent, NuSerum, 2% HEPES-MOPS buffer and 1 mM aminoguanidine.

[2] = system: polyamine transport apparatus; assay: Competitive uptake determination: inhibition of [3H]spermidine transport into L1210 cells; assay type: cell-based, murine; details: analogue inhibition of spermidine transport
Experimental: The ability of the norspermidines, spermidines, homospermidines, 4,5- and 5,5-triamines to compete with radiolabeled SPD for uptake was evaluated (Table 1). The general trend is that the terminally alkylated triamines have higher Ki values than the unalkylated triamines and are thus less easily taken up by the cell. […] This is not completely true with the norspermidines and the 5,5 triamines. The relationship holds with methyl and ethyl but not for the propyl of the latter two systems. Finally, the number of methylenes separating the amines plays a role in determining polyamine uptake properties. In general the effectiveness with which the analogues compete for uptake is spermidines≈homospermidines>4,5 triamines>5,5 triamines>norspermidine.
The polyamine derivatives were studied for their ability to compete with [^3H]-SPD for uptake into L1210 cells [Bergeron et al, J. Med. Chem., Vol. 37, supra]. Lineweaver-Burk plots indicated a simple competitive inhibition with respect to SPD.

[3] = system: spermidine/spermine acetyltransferase (SSAT); assay: SSAT activity in treated L1210 cells; assay type: cell-based, murine; details: L1210, 10 μM at 48 hours (triamine analogues)
Source text: Spermidine/spermine N^1-acetyltransferase activity was based on quantitation of [^14C]-N^1-acetylspermidine formed by acetylation of SPD with [^14C] acetyl coenzyme A according to the method of Libby et al [Biochem. Pharmacol., Vol. 38, supra]. Cells treated with DENSPM were positive controls.

L1210 cells [4] = assay: Metabolic transformation of polyamine analogues by L1210 cells; assay type: in vitro ADME, murine; details: 48 hours
Experimental: (§1) The cells were washed twice with cold RPMI-1640, and the pellet was treated with 0.6 N HClO4 (1 ml/10^7 cells). Polyamine contents of the perchloric acid extracts were quantitated by HPLC of the DANSYL derivatives [Bergeron et al, J. Med. Chem., Vol. 37, supra].

[5] = system: ornithine decarboxylase (ODC); assay: ODC activity in treated L1210 cells; assay type: cell-based, murine; details: L1210, 1 μM at 4 hours
Experimental: (§2) On the basis of these studies, it was elected to evaluate the impact of the triamines on ODC and AdoMetDC at 4 and 6 hours, respectively.
(§3) ODC and AdoMetDC activities were determined as ^14CO2 released from [^14C]-carboxyl-labeled L-ornithine [Seely et al, “Ornithine Decarboxylase (Mouse Kidney),” Methods Enzymol., Vol. 94, pages 158-161 (1983)] or S-adenosyl-L-methionine [Pegg et al, “S-Adenosylmethionine Decarboxylase (Rat Liver),” Methods Enzymol., Vol. 94, pages 234-239 (1983)], respectively. Included in each assay were untreated L1210 cells as controls, as well as cells treated with DEHSPM, a drug having a known reproducible effect on each enzyme, as positive controls.

L1210 cells [6] = assay: Polyamine pool analysis in L1210 cells; assay type: cell-based, murine; details: for activity at 100 µM / activity at 500 µM / activity at 25 µM / activity at 125 µM: Mus musculus, L1210, 48 h, % of untreated control; for Analogue: intracellular amount
Experimental: The following guidelines were adopted for studying the impact of the analogues on polyamine pools (Table 2). The measurements were made after a 48-hour exposure to the analogue, and two different concentrations of analogue were evaluated in each case.
as §1

[7] = system: S-adenosylmethionine decarboxylase (AdoMetDC); assay: AdoMetDC activity in treated L1210 cells; assay type: cell-based, murine; details: L1210, 1 μM at 6 hours
Experimental: as §2, §3

[8] = Mus musculus, L1210, 48 h, L1210, 48 hour exposure, read-out: IC50 48 hour
[9] = Mus musculus, L1210, 96 h, L1210, 96 hour exposure, read-out: IC50 96 hour

| SMILES | IC50 (L1210 cells [1]; [8]) | IC50 (L1210 cells [1]; [9]) | Parent drug as % of total drug in the cell (L1210 cells [4]; 100 μM analogue) | Parent drug in L1210 cells (L1210 cells [4]; 100 μM analogue) | Analogue (L1210 cells [6]; 100 μM, 48 hours) | Analogue (L1210 cells [6]; 500 μM, 48 hours) | Ki [2] | SSAT activity, percent of untreated control [3] | ODC activity, percent of untreated control [5] | activity at 100 µM (L1210 cells [6]; 100 μM, read-out: Put) | activity at 100 µM (L1210 cells [6]; 100 μM, read-out: Spd) | activity at 100 µM (L1210 cells [6]; 100 μM, read-out: Spm) | activity at 500 µM (L1210 cells [6]; 500 μM, read-out: Put) | activity at 500 µM (L1210 cells [6]; 500 μM, read-out: Spd) | activity at 500 µM (L1210 cells [6]; 500 μM, read-out: Spm) | AdoMetDC activity, percent of untreated control [7] | also measured |
| --- | --- | --- | --- | --- | --- | --- | --- | --- | --- | --- | --- | --- | --- | --- | --- | --- | --- |
| CNCCCCNCCCCNC [DMHSPD, N^1,N^9-Dimethylhomospermidine Trihydrochloride] | > 100 µM | 0.9 µM | 100% | 5500 pmols/10^6 | 5.51 nmol/10^6 cells | 5.85 nmol/10^6 cells | 5.5 µM | 510% of untreated control | 20% of untreated control | 0% | 3% | 106% | 0% | 0% | 106% | 86% of untreated control | N-Monodealkylation (result in words) (L1210 cells [4]; 100 μM analogue): no N-demethylation |
| CCNCCCCNCCCCNCC [DEHSPD, N^1,N^9-Diethylhomospermidine Trihydrochloride] | 25 µM | 0.3 to 0.4 µM | 100% | 4215 pmols/10^6 |  |  | 19 µM | 640% of untreated control | 47% of untreated control |  |  |  |  |  |  | 90% of untreated control | IC50 (L1210 cells [1]; L1210, 48 hour exposure, Trihydrochloride, read-out: IC50 48 hour): 18 to 25 µM; N-Monodealkylation (result in words) (L1210 cells [4]; 100 μM analogue, listed as DE-[4,4], Trihydrochloride): do not show significant N-deethylation; also recorded: no N-deethylation; activity at 25 µM (L1210 cells [6]; 25 μM, read-out: Put): 0%; activity at 25 µM (L1210 cells [6]; 25 μM, read-out: Spd): 6%; activity at 25 µM (L1210 cells [6]; 25 μM, read-out: Spm): 114%; activity at 125 µM (L1210 cells [6]; 125 μM, read-out: Put): 0%; activity at 125 µM (L1210 cells [6]; 125 μM, read-out: Spd): 3%; activity at 125 µM (L1210 cells [6]; 125 μM, read-out: Spm): 97%; Analogue (L1210 cells [6]; 25 μM, 48 hours): 4.61 nmol/10^6 cells; Analogue (L1210 cells [6]; 125 μM, 48 hours): 4.69 nmol/10^6 cells |
| CCCNCCCCCNCCCCCNCCC [DP(5,5), 4,10,16-Triazanonadecane Trihydrochloride] | > 100 µM | 6 µM |  |  | 0.86 nmol/10^6 cells | 1.33 nmol/10^6 cells | 87 µM | 90% of untreated control | 73% of untreated control | 59% | 73% | 97% | 51% | 69% | 103% | 123% of untreated control | Parent drug as % of total drug in the cell (L1210 cells [4]; 500 μM analogue): 100%; Parent drug in L1210 cells (L1210 cells [4]; 500 μM analogue): 1300 pmols/10^6; N-Monodealkylation (result in words) (L1210 cells [4]; 500 μM analogue, Trihydrochloride): no metabolic products were found; N-Monodealkylation (result in words) (L1210 cells [4]; 500 μM analogue, listed as DP-[6,5], Trihydrochloride): no N-depropylation; PUT reduced by (L1210 cells [6]; 500 μM, 48 hours): 50%; SPD reduced by (L1210 cells [6]; 500 μM, 48 hours): 30% |
| CCCNCCCCCNCCCCNCCC [DP(4,5), 4,9,15-Triazaoctadecane Trihydrochloride] | ~100 µM | < 2 µM | 69.7% | 1325 pmols/10^6 | 1.40 nmol/10^6 cells | 2.42 nmol/10^6 cells | 75 µM | 80% of untreated control | 83% of untreated control | 0% | 40% | 119% | 0% | 31% | 121% | 86% of untreated control | IC50 (L1210 cells [1]; L1210, 96 hour exposure, Trihydrochloride, read-out: IC50 96 hour): 1 to 1.4 µM; Elaboration to tetraamine (result in words) (L1210 cells [4]; 100 μM analogue): no elaboration of N-Monoalkyl [5,4] |

Now from value to molecule, other results behind:

| IC50 (L1210 cells [1]; [8]) | IC50 (L1210 cells [1]; [9]) | Parent drug as % of total drug in the cell (L1210 cells [4]; 100 μM analogue) | Parent drug in L1210 cells (L1210 cells [4]; 100 μM analogue) | Analogue (L1210 cells [6]; 100 μM, 48 hours) | Analogue (L1210 cells [6]; 500 μM, 48 hours) | SMILES | Ki [2] | SSAT activity, percent of untreated control [3] | ODC activity, percent of untreated control [5] | activity at 100 µM (L1210 cells [6]; 100 μM, read-out: Put) | activity at 100 µM (L1210 cells [6]; 100 μM, read-out: Spd) | activity at 100 µM (L1210 cells [6]; 100 μM, read-out: Spm) | activity at 500 µM (L1210 cells [6]; 500 μM, read-out: Put) | activity at 500 µM (L1210 cells [6]; 500 μM, read-out: Spd) | activity at 500 µM (L1210 cells [6]; 500 μM, read-out: Spm) | AdoMetDC activity, percent of untreated control [7] | also measured |
| --- | --- | --- | --- | --- | --- | --- | --- | --- | --- | --- | --- | --- | --- | --- | --- | --- | --- |
| > 100 µM | 40 µM | 99.4% | 4825 pmols/10^6 | 4.41 nmol/10^6 cells | 4.96 nmol/10^6 cells | CCNCCCCNCCCN [MESPD(N8), N^8-Ethylspermidine Trihydrochloride] | 7 µM | 400% of untreated control | 17% of untreated control | 0% | 26% | 84% | 0% | 15% | 61% | 54% of untreated control | Elaboration to tetraamine (result in words) (L1210 cells [4]; 100 μM analogue, listed as N8-ME-[4,3], Trihydrochloride): no evidence of a tetraamine elaboration metabolite; also recorded: no elaboration of N8-Alkyl [4,3] |
| > 100 µM | ~100 µM | 94.3% | 3019 pmols/10^6 | 3.07 nmol/10^6 cells | 4.78 nmol/10^6 cells | CCCNCCCNCCCN [MPNSPD, N^1-Propylnorspermidine Trihydrochloride] | 33 µM | 470% of untreated control | 33% of untreated control | 0% | 29% | 56% | 0% |  | < 50% | 38% of untreated control | Elaboration to tetraamine (result in words) (L1210 cells [4]; 100 μM analogue, listed as MP-[3,3], Trihydrochloride): no evidence of a tetraamine elaboration metabolite; also recorded: no elaboration of N-Monoalkyl [3,3] |
| > 100 µM | 3 to 5 µM | 96.3% | 3946 pmols/10^6 | 4.20 nmol/10^6 cells | 4.73 nmol/10^6 cells | CCNCCCNCCCCN [MESPD(N1), N^1-Ethylspermidine Trihydrochloride] | 8.6 µM | 430% of untreated control | 10 (10) percent of untreated control | 0% | 25% | 80% | 0% | 14% | 53% | 58% of untreated control |  |
